# Like-named read-outs stand apart in the source and are kept apart here.
# How the values were obtained:
# [1] = parameters: method as in Johnson and Wood, personal communication; conditions: ref Johnson and Wood, personal communication; cited from earlier work
# [2] = system: patients with advanced solid tumours; conditions: human, in vivo
# Source text: (§1) Topoisomerases are essential nuclear enzymes that alter the topology of DNA during DNA metabolism by cleavage of DNA strands, strand passage and religation (Wang, 1985). Two major topoisomerases, types I and H, have been identified in all mammalian cells, and induce single- and double-strand breaks respectively. […] They have different sites of binding DNA and play a different role in the cell cycle. Received 15 November 1996 Revised 19 February 1997 Accepted 10April 1997 Correspondence to: VMM Herben, Slotervaart Hospital, Department of Pharmacy and Pharmacology, Louwesweg 6, 1066 EC Amsterdam, The Netherlands Topotecan (Hycamtin), a semisynthetic water-soluble derivative of camptothecin, was the first topoisomerase I-targeting drug to undergo clinical testing since the discontinuation of the clinical development of sodium camptothecin in the early 1970s. […] In view of topotecan's unique mechanism of action and important anti-tumour effects as single agent, recent studies have focused on combination therapies with other effective anti- cancer agents. The combination of topoisomerase I inhibitors with topoiso- merase II poisons is in theory an attractive strategy. As resistance to inhibition of one class of topoisomerase enzymes is accompa- nied with an elevated sensitivity to the other class of topoiso- merase inhibitors in vitro (Tan et al, 1989; Sugimoto et al, 1990), a combined administration regimen of inhibitors of both topoiso- merases could effectively kill tumour cells. […] The recommended dose for this schedule is 1.5 mg m-2 day-1 (Rowinsky et al, 1991; Verweij et al, 1993). […] Other eligibility criteria included a Zubrod-ECOG-WHO performance status < 2, anticipated life expectancy of 2 3 months and age 2 18 years. Previous anti-cancer chemotherapy had to be discontinued for at least 4 weeks before entry into the study or 6 weeks in cases of pretreatment with a nitrosourea or mitomycin C. All patients had acceptable bone marrow function white blood cell (WBC) ? […]
# [3] = Pharmacokinetics of N-desmethyltopotecan after 30-min infusion of topotecan; type: in vivo, human
# Source text: as §1
# [4] = Plasma pharmacokinetics of etoposide after oral administration (HPLC); conditions: human
# Source text: Topoisomerases are essential nuclear enzymes that alter the topology of DNA during DNA metabolism by cleavage of DNA strands, strand passage and religation (Wang, 1985). Two major topoisomerases, types I and H, have been identified in all mammalian cells, and induce single- and double-strand breaks respectively. […] They have different sites of binding DNA and play a different role in the cell cycle. Received 15 November 1996 Revised 19 February 1997 Accepted 10April 1997 Correspondence to: VMM Herben, Slotervaart Hospital, Department of Pharmacy and Pharmacology, Louwesweg 6, 1066 EC Amsterdam, The Netherlands Topotecan (Hycamtin), a semisynthetic water-soluble derivative of camptothecin, was the first topoisomerase I-targeting drug to undergo clinical testing since the discontinuation of the clinical development of sodium camptothecin in the early 1970s. […] In view of topotecan's unique mechanism of action and important anti-tumour effects as single agent, recent studies have focused on combination therapies with other effective anti- cancer agents. The combination of topoisomerase I inhibitors with topoiso- merase II poisons is in theory an attractive strategy. As resistance to inhibition of one class of topoisomerase enzymes is accompa- nied with an elevated sensitivity to the other class of topoiso- merase inhibitors in vitro (Tan et al, 1989; Sugimoto et al, 1990), a combined administration regimen of inhibitors of both topoiso- merases could effectively kill tumour cells. […] The recommended dose for this schedule is 1.5 mg m-2 day-1 (Rowinsky et al, 1991; Verweij et al, 1993). […] Other eligibility criteria included a Zubrod-ECOG-WHO performance status < 2, anticipated life expectancy of 2 3 months and age 2 18 years. Previous anti-cancer chemotherapy had to be discontinued for at least 4 weeks before entry into the study or 6 weeks in cases of pretreatment with a nitrosourea or mitomycin C. All patients had acceptable bone marrow function white blood cell (WBC) ? […] The study protocol was approved by the Medical Ethics Committee of the hospital, and all patients gave written informed consent. Treatment plan and study design Topotecan (SmithKline Beecham Pharmaceuticals, King of Prussia, PA, USA) was supplied by the National Cancer Institute as a lyophilized light yellow powder in vials containing 5 mg of topotecan (as the free base), 60 mg of mannitol, 25 mg of tartaric acid and 2 M hydrochloric acid and/or 0.05 M sodium hydroxide for pH adjustment to 3.0. The content of each vial was reconsti- tuted with 2 ml of sterile water for injection, USP, yielding a 2.5 mg ml-1 solution of topotecan. The appropriate dosage of the drug was diluted in 50 or 100 ml of 0.9% sodium chloride and was administered intravenously over 30 min by a syringe pump. […]
# [5] = system: patients with advanced solid tumours; conditions: both, human, in vivo
# Method: 0.3 h. […] 2.7 1 h-1 m-2 with a steady-state volume of distribution of 36.7 ? 6.2 I m-2. […] 1.0 h after infusion. […] 0.54 and 1.23 ? […] 1.2 and 2.3 ? 1.0 h after ingestion of 20 and 40 mg respectively. […] Other eligibility criteria included a Zubrod-ECOG-WHO performance status < 2, anticipated life expectancy of 2 3 months and age 2 18 years. Previous anti-cancer chemotherapy had to be discontinued for at least 4 weeks before entry into the study or 6 weeks in cases of pretreatment with a nitrosourea or mitomycin C. All patients had acceptable bone marrow function white blood cell (WBC) ? 4 x 10^9 1-1 and platelets 2 100 x 109 11; normal hepatic function, serum bilirubin < 1.5 mg dl-' (25 pmol 1-1) and other liver function tests < twice the normal upper limit or < five times when related to liver metastases, prothrombin or thrombotest within normal limits; normal renal function, serum creatinine < 1.4 mg dl-1 (120 gmol 1-1). The study protocol was approved by the Medical Ethics Committee of the hospital, and all patients gave written informed consent. Treatment plan and study design Topotecan (SmithKline Beecham Pharmaceuticals, King of Prussia, PA, USA) was supplied by the National Cancer Institute as a lyophilized light yellow powder in vials containing 5 mg of topotecan (as the free base), 60 mg of mannitol, 25 mg of tartaric acid and 2 M hydrochloric acid and/or 0.05 M sodium hydroxide for pH adjustment to 3.0. The content of each vial was reconsti- tuted with 2 ml of sterile water for injection, USP, yielding a 2.5 mg ml-1 solution of topotecan. The appropriate dosage of the drug was diluted in 50 or 100 ml of 0.9% sodium chloride and was administered intravenously over 30 min by a syringe pump.
# [6] = ref Clark et al, 1989; cited from earlier work
# [7] = clinical; conditions: human, in vivo
# Source text: Topoisomerases are essential nuclear enzymes that alter the topology of DNA during DNA metabolism by cleavage of DNA strands, strand passage and religation (Wang, 1985). Two major topoisomerases, types I and H, have been identified in all mammalian cells, and induce single- and double-strand breaks respectively. […] They have different sites of binding DNA and play a different role in the cell cycle. Received 15 November 1996 Revised 19 February 1997 Accepted 10April 1997 Correspondence to: VMM Herben, Slotervaart Hospital, Department of Pharmacy and Pharmacology, Louwesweg 6, 1066 EC Amsterdam, The Netherlands Topotecan (Hycamtin), a semisynthetic water-soluble derivative of camptothecin, was the first topoisomerase I-targeting drug to undergo clinical testing since the discontinuation of the clinical development of sodium camptothecin in the early 1970s. […] In view of topotecan's unique mechanism of action and important anti-tumour effects as single agent, recent studies have focused on combination therapies with other effective anti- cancer agents. The combination of topoisomerase I inhibitors with topoiso- merase II poisons is in theory an attractive strategy. As resistance to inhibition of one class of topoisomerase enzymes is accompa- nied with an elevated sensitivity to the other class of topoiso- merase inhibitors in vitro (Tan et al, 1989; Sugimoto et al, 1990), a combined administration regimen of inhibitors of both topoiso- merases could effectively kill tumour cells. […] The recommended dose for this schedule is 1.5 mg m-2 day-1 (Rowinsky et al, 1991; Verweij et al, 1993). […] Other eligibility criteria included a Zubrod-ECOG-WHO performance status < 2, anticipated life expectancy of 2 3 months and age 2 18 years. Previous anti-cancer chemotherapy had to be discontinued for at least 4 weeks before entry into the study or 6 weeks in cases of pretreatment with a nitrosourea or mitomycin C. All patients had acceptable bone marrow function white blood cell (WBC) ? […] The study protocol was approved by the Medical Ethics Committee of the hospital, and all patients gave written informed consent. Treatment plan and study design Topotecan (SmithKline Beecham Pharmaceuticals, King of Prussia, PA, USA) was supplied by the National Cancer Institute as a lyophilized light yellow powder in vials containing 5 mg of topotecan (as the free base), 60 mg of mannitol, 25 mg of tartaric acid and 2 M hydrochloric acid and/or 0.05 M sodium hydroxide for pH adjustment to 3.0. The content of each vial was reconsti- tuted with 2 ml of sterile water for injection, USP, yielding a 2.5 mg ml-1 solution of topotecan. The appropriate dosage of the drug was diluted in 50 or 100 ml of 0.9% sodium chloride and was administered intravenously over 30 min by a syringe pump. […] The regimen was intended to be repeated every 4 weeks. This could be changed during the study to either shorter or longer intervals depending on bone marrow recovery. Doses were escalated in an alternating way according to the scheme in Table 1. […] Treatment cycles were to be repeated at 3-week intervals. Patients were scheduled to receive at least two courses.
# [8] = system: patients; conditions: cited from earlier work
smiles,measurement,setting,value
CC[C@@]1(O)C(=O)OCc2c1cc1n(c2=O)Cc2cc3c(CNC)c(O)ccc3nc2-1 [N-desmethyltopotecan],anti-tumour activity compared with the parent compound,[1],slightly less anti-tumour activity
same,relation of AUC(t) to myelosuppression,[2],not related
same,additional excretion in the urine as the metabolite,"[3]; 24 to 48 hours after the fifth daily infusion, four patients",0.4%
same,metabolite-to-topotecan ratio of maximal plasma levels,[3]; all dose levels,0.5%
same,metabolite-to-topotecan AUC(t) ratio,"[3]; all dose levels, up to 6 h post-infusion",0.012
COc1cc([C@@H]2c3cc4c(cc3[C@@H](O[C@@H]3O[C@@H]5CO[C@@H](C)O[C@H]5[C@H](O)[C@H]3O)[C@H]3COC(=O)[C@H]23)OCO4)cc(OC)c1O [etoposide],Cmax,[4]; 20 mg,750 ± 540 nM
same,Tmax,[4]; 20 mg,2.4 ± 1.2 h
same,Cmax,[4]; 40 mg,1230 ± 570 nM
same,Tmax,[4]; 40 mg,2.3 ± 1 h
same,recommended dose for phase II clinical trials,[5],40 mg bid
same,peak plasma concentrations associated with significant toxicity,[6],above 17 μmol l-1
same,"correlation of pharmacokinetics (AUC, Cmax) or total dose with haematological toxicity",[2],did not yield any significant relationship
CC[C@@]1(O)C(=O)OCc2c1cc1n(c2=O)Cc2cc3c(CN(C)C)c(O)ccc3nc2-1 [topotecan],"dose that could be given in combination, % of the single-agent dosage",[5],67-83%
same,recommended dose for phase II clinical trials,[5],1.0 mg m-2
same,half-life,"[7]; both, iv",2.1 ± 0.3 h
same,alpha half-life,[7],3.8 ? 3.2 min
same,CL,[7]; 0.5 mg,14.9 ? 1.8 l h-1 m-2
same,Vss,[7]; 0.5 mg,34.0 ? 2.6 l m-2
same,t1/2,[7]; 0.5 mg,1.9 ? 0.1 h
same,CL,[7]; 1 mg,13.4?2.6 l h-1 m-2
same,Vss,[7]; 1 mg,36.4?5.2 l m-2
same,t1/2,[7]; 1 mg,2.2?0.3 h
same,CL,[7]; 1.25 mg,15.6 ? 4.0 l h-1 m-2
same,Vss,[7]; 1.25 mg,33.7 ? 6.7 l m-2
same,percentage of the administered dose recovered in the urine,[7]; 24 h,41 ? 10%
same,"percentage of the administered dose recovered in the urine, range",[7]; 24 h,25-7 1
same,terminal (beta) half-life,[7]; iv,2.1 ? 0.3 h
same,"recommended dose, single agent","[8]; 30-min daily times five infusion every 3 weeks, ref Rowinsky et al, 1991, Verweij et al, 1993",1.5 mg m-2 day-1
same,AUC50 (AUC associated with 50% decrease in ANC),"[8]; preceding single-agent phase I trial, Figure 2, ref Van Warmerdam et al, 1995",79.2 h/nmol/L
same,"recommended dose, single agent","[8]; previously treated patients, ref Saltz et al (1993)",1.25 mg m-2 daily
same,"recommended dose, single agent","[8]; previously untreated patients, ref Saltz et al (1993)",1.5 mg m-2 daily
same,courses resulting in grades III or IV leucocytopenia and neutropenia,"[8]; single agent 1.5 mg m-2 day-1, ref Rowinsky et al, 1991, Verweij et al, 1993",approximately 75%
same,dose associated with a 50% decrease in ANC (D50),[2]; both,0.6 mg m-2 day-1
